Experimental data taken from patent publication US20060252699A1, “Method for lowering serum homocysteine” (priority 2004, published 2006).
Where “and” joins values, the source holds several entries; their conditions need not be identical. Equal values may be shown once.

Tests used:
[1] = system: methylmalonyl CoA mutase (MCM); conditions: brain astrocytes, in vitro; cited from earlier work
[2] = system: serum homocysteine; assay: L-isoleucine therapy for 10 weeks in postmenopausal women: serum homocysteine; type: in vivo, human
Method: L-isoleucine therapy (3-5 grams/day divided into two doses per day) was administered to 17 postmenopausal women for 10 weeks. The L-isoleucine therapy was associated with an 11% average reduction in serum homocysteine levels among 14 post menopausal woman experiencing hot flashes.

SMILES | upregulation of the expression of MCM message [1] [fold] | average reduction in serum homocysteine levels ([2]; among 14 post menopausal women experiencing hot flashes, 10 weeks) [%] | reduction in serum homocysteine ([2]; in 2 participants) [%] | reduction in serum homocysteine ([2]; in 5 participants) [%] | homocysteine ([2]; individual participants, 10 week values (l), L-isoleucine 3-5 grams/day divided into two doses) | % reduction (homocysteine) ([2]; individual participants, 10 week vs baseline, given as fraction)
CCC(=O)SCCNC(=O)CCNC(=O)[C@H](O)C(C)(C)COP(=O)(O)OP(=O)(O)OC[C@H]1O[C@@H](n2cnc3c(N)ncnc32)[C@H](O)[C@@H]1OP(=O)(O)O [propionyl CoA] | 4 | – | – | – | – | –
CC[C@H](C)[C@H](N)C(=O)O [L-isoleucine] | 4 | 11 | > 30 | > 20 | 9.8 umol/L and 4.8 umol/L and 7 umol/L (2×) and 7.1 umol/L and 8.7 umol/L and 7.9 umol/L and 6.1 umol/L and 10.8 umol/L and 8.3 umol/L (2×) and 5.1 umol/L and 6.6 umol/L and 6.7 umol/L | 0.3043 and 0.2473 and 0.01389 and 0 and 0.1319 and 0.04688 and 0.01408 and 0.009174 and −0.2388 and 0.03488 and 0.1774 and 0.2235 and 0.3021 and 0.2632
CC(C)[C@H](N)C(=O)O [valine] | 4 | – | – | – | – | –
